Activity calls are given as the source filed them. No rule for the calls is given here.
Tested on: GENE-TOX genotoxicity assays, various organisms and cells
Assay: GENE-TOX mutagenicity studies
Details: for call: Assay Type: In vivo carcinogenicity studies
[1] = Species/Cell Type: Nonhuman, Assay Type: Sister-chromatid exchange (SCE) in vitro, Assay Code: SC2T, Evaluation Type: Evaluation B (Post-1980)
[2] = Species/Cell Type: Saccharomyces cerevisiae, Assay Type: Mitotic recombination or gene conversion, Assay Code: YEH+, Evaluation Type: Evaluation A (Pre-1980)
[3] = Species/Cell Type: Saccharomyces cerevisiae, Assay Type: Reverse gene mutation, Assay Code: YER+, Evaluation Type: Evaluation A (Pre-1980)
[4] = Species/Cell Type: Salmonella typhimurium (one or more of the five standard strains: TA98, TA100, TA1535, TA1537, and TA1538), Assay Type: Histidine reverse gene mutation, Ames assay, Assay Code: SALT, Evaluation Type: Evaluation A (Pre-1980)
[5] = Species/Cell Type: Escherichia coli polA (W3119 vs P3478), Assay Type: Rec-assay, DNA effects (bacterial DNA repair), Assay Code: RE1T, Evaluation Type: Evaluation A (Pre-1980)
[6] = Species/Cell Type: Drosophila melanogaster, Assay Type: Sex-linked recessive lethal gene mutation, Assay Code: SRL+, Evaluation Type: Evaluation A (Pre-1980)
[7] = Species/Cell Type: Escherichia coli polA (W3119 vs P3478), Assay Type: Rec-assay, DNA effects (bacterial DNA repair), Assay Code: RE1+, Evaluation Type: Evaluation A (Pre-1980)
[8] = Species/Cell Type: Fischer rat embryo (RLV/1706) cells, Assay Type: Cell transformation, viral enhanced, Assay Code: CTR+, Evaluation Type: Evaluation A (Pre-1980)
[9] = Species/Cell Type: Mouse lymphoma (L5178Y) cells, Assay Type: Forward gene mutation at the thymidine kinase (TK) locus, chromosome aberrations, Assay Code: L51+, Evaluation Type: Evaluation A (Pre-1980)
[10] = Species/Cell Type: Neurospora crassa, Assay Type: Forward gene mutation, Assay Code: NEF+, Evaluation Type: Evaluation A (Pre-1980)
[11] = Species/Cell Type: Salmonella typhimurium (one or more of the five standard strains: TA98, TA100, TA1535, TA1537, and TA1538), Assay Type: Histidine reverse gene mutation, Ames assay, Assay Code: SAL+*, Activation: With metabolic activation, Evaluation Type: Evaluation A (Pre-1980)
[12] = Species/Cell Type: Chinese hamster lung (V79) cells, Assay Type: Forward gene mutation at the HPRT or ouabain locus, Assay Code: V79-, Evaluation Type: Evaluation A (Pre-1980)
[13] = Species/Cell Type: Mammalian polychromatic erythrocytes, Assay Type: Micronucleus test, chromosome aberrations, Assay Code: MNT+, Evaluation Type: Evaluation A (Pre-1980)
[14] = Species/Cell Type: Bacillus subtilis (H17 vs M45), Assay Type: Rec-assay, spot test, DNA effects (bacterial DNA repair), Assay Code: REWT, Evaluation Type: Evaluation A (Pre-1980)
[15] = Species/Cell Type: Nonhuman, Assay Code: CCG+, Evaluation Type: Evaluation A (Pre-1980)
[16] = Species/Cell Type: Nonhuman, Assay Type: Sister-chromatid exchange (SCE) in vitro, Assay Code: SC2+D, Dose Response: With dose response, Evaluation Type: Evaluation B (Post-1980)

CC(=O)O[C@H]1[C@H]2O[C@H]2C2=CC(=O)[C@]3(C[C@]2(C)[C@H]1C)O[C@]3(C)C=O
mutagenic call (Species/Cell Type: Bacillus subtilis (H17 vs M45), Assay Type: Rec-assay, spot test, DNA effects (bacterial DNA repair), Assay Code: REW+, Evaluation Type: Evaluation A (Pre-1980)): active; positive
mutagenic call (Species/Cell Type: Neurospora crassa, Assay Type: Reverse gene mutation, Assay Code: NER+, Evaluation Type: Evaluation A (Pre-1980)): active; positive
mutagenic call [1]: no conclusion
mutagenic call (Species/Cell Type: Saccharomyces cerevisiae, Assay Type: Mitotic recombination or gene conversion, Assay Code: YEC+/-*, Activation: With metabolic activation, Evaluation Type: Evaluation A (Pre-1980)): inactive; positive without activation, negative with activation
mutagenic call [2]: active; positive
mutagenic call [3]: active; positive
mutagenic call [4]: no conclusion

C[C@H]1O[C@@H](O[C@H]2[C@@H](O)C[C@H](O[C@H]3[C@@H](O)C[C@H](O[C@H]4CC[C@@]5(C)[C@H](CC[C@@H]6[C@@H]5C[C@@H](O)[C@]5(C)[C@@H](C7=CC(=O)OC7)CC[C@]65O)C4)O[C@@H]3C)O[C@@H]2C)C[C@H](O)[C@@H]1O
mutagenic call [5]: no conclusion

CCN(CC)CCNc1ccc(C)c2sc3ccccc3c(=O)c12
mutagenic call (Species/Cell Type: Drosophila melanogaster, Assay Type: Aneuploidy, whole sex chromosome loss, chromosome aberrations, Assay Code: DAC+M, Evaluation Type: Evaluation A (Pre-1980)): active; positive
mutagenic call [6]: active; positive
mutagenic call [7]: active; positive
mutagenic call [8]: active; positive
mutagenic call [9]: active; positive
mutagenic call (Species/Cell Type: Neurospora crassa, Assay Type: Aneuploidy, chromosome aberrations, Assay Code: NEN-, Evaluation Type: Evaluation A (Pre-1980)): inactive; negative
mutagenic call [10]: active; positive
mutagenic call [11]: active; positive
mutagenic call [4]: no conclusion

CCCCN(CC(C)=O)N=O
mutagenic call [11]: active; positive

CC(=O)Nc1ccccc1O
mutagenic call (Species/Cell Type: Human, Assay Type: Sister-chromatid exchange (SCE) in vitro, Assay Code: SC1T, Evaluation Type: Evaluation B (Post-1980)): no conclusion

O=NN1CCNCC1
mutagenic call (Species/Cell Type: Salmonella typhimurium, Assay Type: Forward and reverse gene mutation, host-mediated assay, Assay Code: HMA+, Evaluation Type: Evaluation A (Pre-1980)): active; positive

c1cncc([C@@H]2CCCCN2)c1
mutagenic call [1]: no conclusion

CC(=O)Nc1ccc(-c2ccc(NO)cc2)cc1
mutagenic call (Species/Cell Type: Chinese hamster ovary (CHO) cells, Assay Type: Forward gene mutation at the HPRT locus, Assay Code: CHO+, Evaluation Type: Evaluation B (Post-1980)): active; positive

CN1CCC(=C2c3ccccc3C=Cc3ccccc32)CC1
mutagenic call [4]: no conclusion

CCCCCCCCCCCCCC(=O)O[C@@H]1[C@@H](C)[C@@]2(O)[C@@H](C=C(CO)C[C@]3(O)C(=O)C(C)=C[C@@H]23)[C@@H]2C(C)(C)[C@]12OC(C)=O
mutagenic call [12]: inactive; negative
mutagenic call [5]: no conclusion
mutagenic call (Species/Cell Type: Fischer rat embryo (RLV/1706) cells, Assay Type: Cell transformation, viral enhanced, Assay Code: CTR-, Evaluation Type: Evaluation A (Pre-1980)): inactive; negative
mutagenic call (Species/Cell Type: Human, Assay Type: Sister-chromatid exchange (SCE) in vitro, Assay Code: SC1+, Evaluation Type: Evaluation B (Post-1980)): active; positive
mutagenic call (Species/Cell Type: Mouse (C3H/10T1/2) cells, Assay Type: Cell transformation, Assay Code: CTH-, Evaluation Type: Evaluation A (Pre-1980)): inactive; negative
mutagenic call (Species/Cell Type: Nonhuman, Assay Type: Sister-chromatid exchange (SCE) in vitro, Assay Code: SC2+, Evaluation Type: Evaluation A (Pre-1980)): active; positive
mutagenic call [1]: no conclusion
mutagenic call (Species/Cell Type: Saccharomyces cerevisiae, Assay Type: Mitotic recombination or gene conversion, Assay Code: YEH-, Evaluation Type: Evaluation A (Pre-1980)): inactive; negative
mutagenic call (Species/Cell Type: Salmonella typhimurium (one or more of the five standard strains: TA98, TA100, TA1535, TA1537, and TA1538), Assay Type: Histidine reverse gene mutation, Ames assay, Assay Code: SAL-, Evaluation Type: Evaluation A (Pre-1980)): inactive; negative
mutagenic call (Species/Cell Type: Syrian hamster embryo (SHE) cells, Assay Type: Cell transformation, clonal assay, Assay Code: CTC-, Evaluation Type: Evaluation A (Pre-1980)): inactive; negative

O=C1C=C(N2CC2)C(=O)C(N2CC2)=C1N1CC1
mutagenic call [6]: active; positive
mutagenic call (Species/Cell Type: Drosophila melanogaster, Sex: Male, Assay Type: Heritable translocation test, chromosome aberrations, Assay Code: DHT+, Evaluation Type: Evaluation A (Pre-1980)): active; positive
mutagenic call (Species/Cell Type: Glycine max (soybean), Assay Type: Gene mutation, Assay Code: GLM+, Evaluation Type: Evaluation A (Pre-1980)): active; positive
mutagenic call (Species/Cell Type: Hordeum vulgare (barley), Assay Type: Chromosome aberrations, Assay Code: HOC+D, Dose Response: With dose response, Evaluation Type: Evaluation A (Pre-1980)): active; positive
mutagenic call (Species/Cell Type: Human lymphocytes or leukocytes, Assay Type: Chromosome aberrations in vitro, Assay Code: CY7T, Evaluation Type: Evaluation A (Pre-1980)): no conclusion
mutagenic call (Species/Cell Type: Human lymphocytes, Assay Type: Sister-chromatid exchange (SCE) in vitro, Assay Code: SCL+D, Dose Response: With dose response, Evaluation Type: Evaluation A (Pre-1980)): active; positive
mutagenic call (Species/Cell Type: Human, Assay Type: Sister-chromatid exchange (SCE) in vitro, Assay Code: SC1+D, Dose Response: With dose response, Evaluation Type: Evaluation A (Pre-1980)): active; positive
mutagenic call (Species/Cell Type: Mammalian germ cells, Sex: Male, Assay Type: Chromosome aberrations in vivo, Assay Code: CY9T, Evaluation Type: Evaluation A (Pre-1980)): no conclusion
mutagenic call (Species/Cell Type: Mammalian oocytes or early embryo, Assay Type: Chromosome aberrations in vivo, Assay Code: CYO+, Evaluation Type: Evaluation A (Pre-1980)): active; positive
mutagenic call [13]: active; positive
mutagenic call [10]: active; positive
call (Species/Cell Type: Nonhuman, Assay Code: CCG+L, Evaluation Type: Evaluation A (Pre-1980)): active; positive
mutagenic call (Species/Cell Type: Nonhuman, Assay Type: Sister-chromatid exchange (SCE) in vitro, Assay Code: SC2+D, Dose Response: With dose response, Evaluation Type: Evaluation A (Pre-1980)): active; positive
mutagenic call (Species/Cell Type: Nonhuman, Assay Type: Sister-chromatid exchange (SCE) in vivo, Assay Code: SC3+D, Dose Response: With dose response, Evaluation Type: Evaluation A (Pre-1980)): active; positive
mutagenic call (Species/Cell Type: Rodents, Sex: Female, Assay Type: Dominant lethal test, Assay Code: DLTF+D, Dose Response: With dose response, Evaluation Type: Evaluation A (Pre-1980)): active; positive
mutagenic call (Species/Cell Type: Rodents, Sex: Male, Assay Type: Dominant lethal test, Assay Code: DLT+D, Dose Response: With dose response, Evaluation Type: Evaluation A (Pre-1980)): active; positive
mutagenic call (Species/Cell Type: Saccharomyces cerevisiae, Assay Type: Mitotic recombination or gene conversion, Assay Code: YEC+, Evaluation Type: Evaluation A (Pre-1980)): active; positive
mutagenic call [3]: active; positive
mutagenic call (Species/Cell Type: Salmonella typhimurium, Escherichia coli, Serratia marcesens, Assay Type: Forward and reverse gene mutation, host-mediated assay, Assay Code: HMN+, Evaluation Type: Evaluation A (Pre-1980)): active; positive

c1nncnn1
mutagenic call [14]: no conclusion

CI
mutagenic call [7]: active; positive
mutagenic call [9]: active; positive
call [15]: active; positive
mutagenic call [2]: active; positive
mutagenic call (Species/Cell Type: Syrian hamster embryo (SHE) cells, Assay Type: Cell transformation, clonal assay, Assay Code: CTC+, Evaluation Type: Evaluation A (Pre-1980)): active; positive

COc1cc2c(c(O)c1O)C(=O)c1c(O)cc(C)cc1C2=O
mutagenic call (Species/Cell Type: Salmonella typhimurium (one or more of the five standard strains: TA98, TA100, TA1535, TA1537, and TA1538), Assay Type: Histidine reverse gene mutation, Ames assay, Assay Code: SAL+, Evaluation Type: Evaluation A (Pre-1980)): active; positive

Cn1c(CCCC(=O)O)nc2cc(N(CCCl)CCCl)ccc21
mutagenic call [16]: active; positive

Cc1cc(-c2ccc(N)c(C)c2)ccc1N
mutagenic call [8]: active; positive
mutagenic call (Species/Cell Type: Human diploid fibroblasts, Assay Type: Unscheduled DNA synthesis (UDS) in vitro, DNA effects, Assay Code: UDHT, Evaluation Type: Evaluation A (Pre-1980)): no conclusion
mutagenic call [13]: active; positive
call [15]: active; positive
mutagenic call [16]: active; positive
mutagenic call [11]: active; positive

O=c1c(=O)c2cc3ccccc3c3ccc4cccc1c4c23
mutagenic call [12]: inactive; negative
mutagenic call [4]: no conclusion

O=C1c2ccccc2C(=O)C1c1ccc2cc(S(=O)(=O)O)cc(S(=O)(=O)O)c2n1
mutagenic call [14]: no conclusion

Reference: PubChem BioAssay AID1259408 (Genetic Toxicology Data Bank (GENE-TOX), 2018)
